Reference: US9187486B2 (AMGEN INC., priority 2011, dated 2015)
Where two headings read alike, the source gives them in different places.

Tests used:
[1] = system: KMS-12-BM myeloma cell line; test: Pim cell assay: phospho-BAD (S112) and total BAD in KMS-12-BM cells; type: cell-based; settings: 1 hour and 50 minutes incubation, read-out: KMS-12-BM IC50 IP
Method: The KMS-12-BM myeloma cell line was used to determine the in vitro cellular inhibition of Pim kinases. Disruption of Pim signaling by Pim inhibitors was determined by measuring the levels of phospho-BAD (S112) and total BAD. […] The cells were then incubated overnight at 37° C., 5% CO2. […] In addition to the 10-point dosing curve of the test compound, DMSO alone was run as a control. This dilution in DMSO was then diluted again into cell growth medium. Aliquots (11.1 uL) of the compound diluted in growth medium were then transferred to the appropriate wells of the 96-well plates containing cells to yield a final DMSO concentration of 0.3%. The cell plates were then incubated with compound for 1 hour and 50 minutes at 37° C., 5% CO2. After the 1 hour and 50 min incubation, the cell plates were spun at 1000 RPM for 10 minutes and the compound-containing medium was removed. […] The cell plates containing lysis buffer were then immediately stored at −70° C. These prepared lysates were then assayed for phospho-(S112) and total-BAD according to the manufacturer's protocol (Meso Scale Diagnostics, Cat # K15103D-3). The plates were read on the MSD Sector Imager 6000, and results were calculated according to the assay protocol: ((% Phosphoprotein=((2×Phospho signal)/(Phospho signal+Total signal))×100)).

[2] = molecular target: Pim-1 (Homo sapiens (Human), UniProt P11309); test: Pim enzyme assay (HTRF, phosphorylation of biotinylated-BAD (S112) peptide), Pim-1; type: biochemical; settings: full length recombinant Pim-1, biotinylated-BAD (S112) peptide, HTRF, 96-well; read-out: Pim-1 IC50 IP
Chain of Pim-1 (P11309 whole entry): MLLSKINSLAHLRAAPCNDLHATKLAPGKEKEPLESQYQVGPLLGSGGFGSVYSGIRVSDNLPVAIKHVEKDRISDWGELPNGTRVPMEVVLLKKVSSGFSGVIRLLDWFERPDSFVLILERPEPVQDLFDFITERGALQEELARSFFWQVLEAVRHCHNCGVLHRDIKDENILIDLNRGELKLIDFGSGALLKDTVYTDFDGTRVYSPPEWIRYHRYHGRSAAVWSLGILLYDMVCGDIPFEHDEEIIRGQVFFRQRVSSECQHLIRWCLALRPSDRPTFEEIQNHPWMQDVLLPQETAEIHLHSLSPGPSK
Description: (§1) Full-length human cDNAs encoding Pim-1 (MGC ID 3913552) or Pim-2 (IMAGE ID 5092935) were purchased from Invitrogen, Carlsbad, Calif. These cDNAs were used as templates in PCR reactions to produce full-length DNA clones of the PIMs. Oligonucleotide PCR primers for Pim-1 were 5′-[…]-3′ and 5′-[…]-3′. Oligonucleotide PCR primers for Pim-2 were 5′-[…]-3′ and 5′-[…]-3′. PCR products were digested with BclI and EcoRI for Pim-1 and BamHI and EcoRI for Pim-2 and ligated into a modified baculovirus transfer vector (pFastBac 1) cleaved with BamHI and EcoRI. For bacterial expression, the same cleaved PCR products encoding Pim-1 or Pim-2 were ligated into a modified E. coli expression vector pET28(a) cleaved with BamHI and EcoRI. Amino-terminal hexahistidine tags followed by a thrombin cleavage site were previously added to the vectors using standard methods of molecular biology. Recombinant baculoviruses expressing Pim-1 or Pim-2 were made using standard methods (Fastbac manual, Invitrogen, Carlsbad, Calif.). Infection of Sf9 cells was done at an m.o.i. of greater than 5 for 24-48 h. Cells were harvested by centrifugation and frozen at −80 C. For E. coli expression, cells carrying pET28-His6-Th-Pim-1 or pET28-His6-Th-Pim-2 were picked from a single colony and grown o/n in LB media. The o/n culture was used to inoculate a 2 liter flask with 500 mL media. This was grown o/n and used to inoculate 15-20 liters of Terrific Broth in a New Brunswick Scientific fermentor. The E. coli were grown at 37° C. to and OD600>1.6. The temperature was dropped to 18° C. and o/n expression was induced with 0.5 mM IPTG. Cells were harvested by centrifugation and frozen at −80° C.
(§2) The frozen cell pellets were thawed by stirring in chilled lysis buffer (0.05 M HEPES, pH 8.0, 0.25 M NaCl, 0.01 M 2-mercaptoethanol, 10% (w/v) glycerol, 0.5% (v/v) protease inhibitor cocktail (Sigma P-8340) at a ratio of 1 L/200 g cells until homogeneous. The thawed suspension was applied to a microfluidizer at 10,000 PSI to disrupt the cells and the whole lysates were clarified by centrifugation at 50,000×g for 90 min, 4° C. Imidazole was added to the clarified lysate to a final concentration of 2.5 mM and the lysate was mixed with 10 mL of Talon resin (Clontech) and the slurry rocked gently overnight at 4° C. The slurry was centrifuged at 1,000×g for 5 min, the supernatant decanted, and the resin suspended in 40 mL of lysis wash buffer (lysis buffer at 0.75 M NaCl). This step was repeated 3× and the resin was transferred to a 2.5 cm glass column. Ten column volumes of wash buffer (0.05 M HEPES, pH 8.0, 0.1 M NaCl, 0.01 M 2-mercaptoethanol, 10% (w/v) glycerol) were applied to the resin followed by 10 column volumes of elution buffer (0.05 M HEPES, pH 8.0, 0.25 M NaCl, 0.01 M 2-mercaptoethanol, 10% (w/v) glycerol, 0.1 M imidazole). Fractions were analyzed by SDS-PAGE and those containing the protein of interest were pooled and concentrated. The concentrated protein was applied to an Amersham Superdex 75 (XK 26/60) column equilibrated in 0.025 M Tris-HCl, pH 7.5, 0.1 M NaCl, 0.01 M 2-mercaptoethanol, 10% (w/v) glycerol. […] Fractions containing the monomeric protein of interest were pooled, concentrated to ˜2 mg/mL, and stored at −80° C.
(§3) The phosphorylation of biotinylated-BAD (S112) peptide by full length recombinant Pim-1, Pim-2, or Pim-3 protein was detected with streptavidin:Allophycocyanin (APC) conjugate and a europium (Eu) labeled antibody directed against phosphorylated-BAD (S112). Excitation of Eu by a high energy laser light (337 nm) leads to a transfer of energy to the APC molecule, and results in an emission at 665 nm. The fluorescence is directly proportional to the amount of phosphorylated BAD peptide present in the reaction.

[3] = molecular target: Pim-2 (Homo sapiens (Human), UniProt Q9P1W9); test: Pim enzyme assay (HTRF, phosphorylation of biotinylated-BAD (S112) peptide), Pim-2; type: biochemical; settings: full length recombinant Pim-2, biotinylated-BAD (S112) peptide, HTRF, 96-well; read-out: Pim-2 IC50 IP
Chain of Pim-2 (Q9P1W9 whole entry): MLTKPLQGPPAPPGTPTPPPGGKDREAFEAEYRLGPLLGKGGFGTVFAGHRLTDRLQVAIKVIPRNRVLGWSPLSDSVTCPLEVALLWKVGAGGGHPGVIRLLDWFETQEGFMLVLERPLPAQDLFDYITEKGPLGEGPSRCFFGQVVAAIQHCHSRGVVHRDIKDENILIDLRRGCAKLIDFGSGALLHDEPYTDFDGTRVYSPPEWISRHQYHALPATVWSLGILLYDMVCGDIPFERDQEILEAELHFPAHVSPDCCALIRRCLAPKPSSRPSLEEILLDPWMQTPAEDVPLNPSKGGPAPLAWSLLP
Description: as §1, §2, §3

Compound	IC50 ([1]; Homo sapiens, KMS-12-BM) [nM]	IC50 [2] [nM]	further results
C[C@@H]1C[C@H](N)CN(c2ccncc2Nc2ncc3ccc(-c4c(F)cccc4F)nn23)C1 (racemic) [Example 37, rac-N-(4-((cis)-3-amino-5-methylpiperidin-1-yl)pyridin-3-yl)-2-(2,6-difluorophenyl)imidazo[1,5-b]pyridazin-7-amine tris(2,2,2-trifluoroacetate)]	95	–	–
N[C@@H]1CN(c2ccncc2Nc2ncc3ccc(-c4c(F)cccc4F)nn23)CC[C@H]1F (racemic) [Example 43, rac-N-(4-(trans-3-amino-4-fluoropiperidin-1-yl)pyridin-3-yl)-2-(2,6-difluorophenyl)imidazo[1,5-b]pyridazin-7-amine]	465	–	–
N[C@@H]1C=C(c2ccncc2Nc2ncc3ccc(-c4c(F)cccc4F)nn23)CCC1 (racemic) [Example 82, rac-N-(4-(3-aminocyclohex-1-en-1-yl)pyridin-3-yl)-2-(2,6-difluorophenyl)imidazo[1,5-b]pyridazin-7-amine tris(2,2,2-trifluoroacetate)]	1200	1.2	–
N[C@@H]1C=C(c2ccncc2Nc2ncc3ccc(-c4c(F)cccc4F)nn23)CC[C@H]1F (racemic) [Example 93, (2,2,2-trifluoroacetate)]	2600	–	IC50 [3]: 15.5 nM
C[C@@H]1C[C@H](N)CN(c2ccncc2Nc2ncc3ccc(-c4c(F)cccc4F)nn23)C1 (single isomer, unassigned) [Example 38, N-(4-((cis)-3-amino-5-methylpiperidin-1-yl)pyridin-3-yl)-2-(2,6-difluorophenyl)imidazo[1,5-b]pyridazin-7-amine]	–	–	IC50 [1]: 27.6 nM
C[C@@H]1C[C@H](N)CN(c2ccncc2Nc2ncc3ccc(-c4c(F)cccc4F)nn23)C1 (single isomer, unassigned) [Example 39, N-(4-((cis)-3-amino-5-methylpiperidin-1-yl)pyridin-3-yl)-2-(2,6-difluorophenyl)imidazo[1,5-b]pyridazin-7-amine]	–	–	IC50 [1]: 1750 nM
N[C@@H]1CN(c2ccncc2Nc2ncc3ccc(-c4c(F)cccc4F)nn23)CC[C@H]1F (single isomer, unassigned) [Example 45, N-(4-(trans-3-amino-4-fluoropiperidin-1-yl)pyridin-3-yl)-2-(2,6-difluorophenyl)imidazo[1,5-b]pyridazin-7-amine]	–	–	IC50 [1]: 1070 nM
C[C@@H]1CN(c2ccncc2Nc2ncc3ccc(-c4c(F)cccc4F)nn23)[C@@H](C)CN1 (single isomer, unassigned) [Example 52, 2-(2,6-difluorophenyl)-N-(4-((trans)-2,5-dimethyl-1-piperazinyl)-3-pyridinyl)imidazo[1,5-b]pyridazin-7-amine]	> 15800	–	–
N[C@@H]1C=C(c2ccncc2Nc2ncc3ccc(-c4c(F)cccc4F)nn23)CCC1 (single isomer, unassigned) [Example 83, N-(4-(3-aminocyclohex-1-en-1-yl)pyridin-3-yl)-2-(2,6-difluorophenyl)imidazo[1,5-b]pyridazin-7-amine tris(2,2,2-trifluoroacetate)]	1090	1.1	–
C[C@H]1CC[C@H](N)CN1c1ccncc1Nc1ncc2ccc(-c3c(F)cccc3F)nn12 (single isomer, unassigned) [Example 87, N-(4-(5-amino-2-methylpiperidin-1-yl)pyridin-3-yl)-2-(2,6-difluorophenyl)imidazo[1,5-b]pyridazin-7-amine tris(2,2,2-trifluoroacetate)]	–	–	IC50 ([1]; tris(2,2,2-trifluoroacetate)): 48.8 nM
C[C@H]1CC[C@H](N)CN1c1ccncc1Nc1ncc2ccc(-c3c(F)cccc3F)nn12 (single isomer, unassigned) [Example 88, N-(4-(5-amino-2-methylpiperidin-1-yl)pyridin-3-yl)-2-(2,6-difluorophenyl)imidazo[1,5-b]pyridazin-7-amine tris(2,2,2-trifluoroacetate)]	–	–	IC50 ([1]; tris(2,2,2-trifluoroacetate)): 9820 nM
C[C@H]1CC[C@@H](N)CN1c1ccncc1Nc1ncc2ccc(-c3ncccc3F)nn12 (single isomer, unassigned) [Example 94, N-(4-((cis)-5-amino-2-methylpiperidin-1-yl)pyridin-3-yl)-2-(3-fluoropyridin-2-yl)imidazo[1,5-b]pyridazin-7-amine tris(2,2,2-trifluoroacetate)]	–	–	IC50 ([1]; tris(2,2,2-trifluoroacetate)): 14100 nM
C[C@H]1CC[C@H](N)CN1c1ccncc1Nc1ncc2ccc(-c3ncccc3F)nn12 (single isomer, unassigned) [Example 97, N-(4-((trans)-5-amino-2-methylpiperidin-1-yl)pyridin-3-yl)-2-(3-fluoropyridin-2-yl)imidazo[1,5-b]pyridazin-7-amine tris(2,2,2-trifluoroacetate)]	362	–	–
C[C@H]1CN(c2ccncc2Nc2ncc3ccc(-c4c(F)cccc4F)nn23)[C@@H](C)CN1 [Example 49, 2-(2,6-difluorophenyl)-N-(4-((2S,5S)-2,5-dimethylpiperazin-1-yl)pyridin-3-yl)imidazo[1,5-b]pyridazin-7-amine]	12100	–	–
N[C@H]1CCCN(c2ccncc2Nc2nnc3cccnn23)C1 [Example 68, 2,2,2-trifluoroacetate]	–	38.3	IC50 [3]: 73.7 nM
N[C@@H]1CCCN(c2ccncc2Nc2ncc3ccc(-c4c(F)cccc4F)nn23)C1 [Example 69, (R)-N-(4-(3-aminopiperidin-1-yl)pyridin-3-yl)-2-(2,6-difluorophenyl)imidazo[1,5-b]pyridazin-7-amine]	–	7.6	IC50 [3]: 35.2 nM
COC(C)CN(C)c1ccncc1Nc1ncc2ccc(-c3c(F)cccc3F)nn12 (stereo not shown) [Example 77, N3-(2-(2,6-difluorophenyl)imidazo[1,5-b]pyridazin-7-yl)-N4-(2-methoxypropyl)-N4-methylpyridine-3,4-diamine]	–	150	IC50 [3]: > 1000 nM
N[C@H]1CCCN(c2cnccc2Nc2ncc3ccc(-c4c(F)cccc4F)nn23)C1 [Example 80, (S)-N-(3-(3-aminopiperidin-1-yl)pyridin-4-yl)-2-(2,6-difluorophenyl)imidazo[1,5-b]pyridazin-7-amine tetra(2,2,2-trifluoroacetate)]	–	> 1000	IC50 [3]: > 1000 nM
